According to patent EP2108954A1, “A test system for detecting intracellular cyclic nucleotide level and methods and uses thereof” (Max-Planck-Gesellschaft zur Förderung der Wissenschaften …, priority 2008, dated 2009):

Molecular target: T1, Or22a and Or83b (Drosophila melanogaster, UniProt P81909+Q9VNB5)
T1 construct: expressed in transfected cells; host or cells: HEK293
T1 sequence (P81909 1-397): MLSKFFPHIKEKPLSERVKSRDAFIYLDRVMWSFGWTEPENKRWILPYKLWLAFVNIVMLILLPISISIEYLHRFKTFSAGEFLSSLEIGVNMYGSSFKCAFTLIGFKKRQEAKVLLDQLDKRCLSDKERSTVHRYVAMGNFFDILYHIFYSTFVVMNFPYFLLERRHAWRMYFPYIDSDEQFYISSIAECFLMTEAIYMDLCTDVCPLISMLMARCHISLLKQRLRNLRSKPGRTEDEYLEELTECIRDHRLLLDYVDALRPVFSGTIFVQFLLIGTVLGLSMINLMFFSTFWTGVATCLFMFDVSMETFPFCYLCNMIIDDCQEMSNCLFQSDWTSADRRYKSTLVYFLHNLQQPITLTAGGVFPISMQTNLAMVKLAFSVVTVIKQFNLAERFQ
T1 sequence (Q9VNB5 1-486): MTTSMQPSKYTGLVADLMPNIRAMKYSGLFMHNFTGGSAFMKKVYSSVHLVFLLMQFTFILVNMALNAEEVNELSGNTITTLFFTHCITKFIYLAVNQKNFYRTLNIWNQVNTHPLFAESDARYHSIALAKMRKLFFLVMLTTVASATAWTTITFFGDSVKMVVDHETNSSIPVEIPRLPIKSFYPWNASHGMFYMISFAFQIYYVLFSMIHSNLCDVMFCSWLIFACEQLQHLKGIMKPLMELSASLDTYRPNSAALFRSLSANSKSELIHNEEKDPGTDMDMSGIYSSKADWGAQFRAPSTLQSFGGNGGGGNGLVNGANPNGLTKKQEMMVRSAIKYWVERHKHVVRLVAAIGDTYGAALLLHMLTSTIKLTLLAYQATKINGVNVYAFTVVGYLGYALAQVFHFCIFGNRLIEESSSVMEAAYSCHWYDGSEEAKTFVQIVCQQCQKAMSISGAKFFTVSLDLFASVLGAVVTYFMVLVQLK
Assay: Calcium imaging (fura-2) in HEK293 cells coexpressing Or22a and Or83b
Format: cell-based
Settings: dependent on Etb concentration and on extracellular Ca^2+
Procedure: Free intracellular Ca^2+ concentration ([Ca^2+]i) was determined by fura-2 fluorescence as described (Messutat et al., Cell Calcium 30, 199-211. (2001)). In brief, cells were loaded with fura-2 by incubation in bath solution containing 2 µM fura-2/acetomethylester for 20 min. Free intracellular Ca^2+ concentration ([Ca^2+]i) was determined with the fluorescence ratio method. Excitation of fura-2 at 340 and 380 nm was performed with a monochromator (Polychrome II, T.I.L.L. Photonics, Gräfelfing, Germany) coupled via an epifluorescence condenser into an Axioskop FS microscope (Carl Zeiss, Jena, Germany) with a water immersion objective (LUMPFL 40xW/IR/0.8; Olympus, Hamburg, Germany). […] [Ca^2+]i was calculated according to the equation [Ca^(2 +)]i = Keff (R-Rmin)/(Rmax-R). […] Keff, Rmin, and Rmax were determined using HEK293 cells permeabilized with 2 µM ionomycin and three solutions with different concentrations of free Ca^2+ (Ca^2+ free; 5 mM Ca^2+; 500 nM Ca^2+; the composition of the 500 nM solution was calculated with WEBMAXC v.2.20) (Patton et al., Cell Calcium 35, 427-31 (2004)). […]
Fluorescence images were acquired using a cooled CCD camera controlled by TILLVision 4.0 software (T.I.L.L. Photonics). […] Image pairs were obtained by excitation for 100 ms at 340 nm and 380 nm; background fluorescence was subtracted.

Question: `CCCC(=O)OCC` [Etb, ethyl butyrate] was tested. Which “intracellular Ca^2+ concentration ([Ca^2+]i)” value did it give?
Answer: increased intracellular Ca^2+ concentration
